Experimental data as given in patent US11027028B2, “Manganese complexes with substituted bisphosphonates useful as imaging and therapeutic agents” (DUKE UNIVERSITY, priority 2015, dated 2021).
One block for each compound: values may come before it.

Experiments:
[1] = tested on: 4T1 tumor; experiment: Dynamic contrast enhancement of 4T1 tumor after i.v. administration; type: in vivo; details: pilot data
Procedure: FIG. 5. Dynamic contrast enhancement of 4T1 tumor after i.v. administration of 1-hydroxybisphosphonate:Mn complex linked to HSP90 inhibitor as in Scheme 1C, 25 mg/kg. Graph on left depicts relative change in T1 enhancement in tumors after labeled drug (n=5) and after Mn:ETID complex alone (n=6).
Several synthetic strategies were used for labeling small molecule drugs either directly or via polyethyleneglycol (PEG) linkers. Two complexes, the first with a medronate analogue (Scheme IB) via the amine-terminated PEG linker and the second an etidronate analogue coupled through the COOH-terminated PEG linker (Scheme 1C), were synthesized, characterized and studied preliminarily in vivo.

[2] = In vivo MRI after i.v. administration of Mn(II) complexes; design: species or system mouse
Procedure: FIG. 4. A, In vivo MRI in control mouse after i.v. administration of MnNTA. B, MRI after i.v. administration of Mn:ETID ([…] of 40 mM solution).
In vivo behavior was tested of two relatively strong (log K1>7) ligands for Mn(II) chelation, nitrilotriacetic acid (NTA), closely related to EDTA, and […] (3,4-DBA).
Enhancement of the bowel is also noted but more variable, believed to represent elimination of the coordination complex from the gallbladder into the small intestine. In addition, subtle but transient T1 changes are observed in the skeletal muscles and long bones that return to normal after 30 min, paralleling the mild residual T1 changes in major vessels, consistent with a blood pool rather than local parenchymal uptake effect.

[3] = previously FDA-approved Mn(II) agent; cited from earlier work

SMILES: Cc1nn(-c2ccc(C(N)=O)c(NCCCOCCOCCOCCOCCOCCCC(=O)NCCCC(O)(P(=O)(O)O)P(=O)(O)O)c2)c2c1C(=O)CC(C)(C)C2 [Scheme 1C]
Enhancement in 4T1 tumors relative to paramagnetic coordination complex alone [1]: progressive accumulation of enhancement in 4T1 tumors that is greater than what is seen for the paramagnetic coordination complex alone

Cardiac enhancement ([2]; after i.v. administration, indicates free Mn released into the blood pool): cardiac enhancement was also seen
SMILES: O=C(O)CN(CC(=O)O)CC(=O)O [NTA, nitrilotriacetic acid]
Biodistribution on in vivo MR imaging ([2]; mouse, in vivo, iv): release of free Mn and hepatocellular uptake

SMILES: Cc1ncc(COP(=O)([O-])[O-])c(CN(CCN(CC(=O)[O-])Cc2c(COP(=O)([O-])[O-])cnc(C)c2[O-])CC(=O)[O-])c1[O-].[H+].[H+].[H+].[Mn+2].[Na+].[Na+].[Na+] [Teslascan, mangafodipir trisodium]
In vivo distribution [3]: immediately distributed to the liver, releasing free Mn
